In article PMC10254444, “Targeting Myeloperoxidase Activity and Neutrophil ROS Production to Modulate Redox Process: Effect of Ellagic Acid and Analogues” (Molecules, 2023):

What was measured:
[1] = test system: PMA-activated neutrophils; assay: ROS production by PMA-activated neutrophils (L012 chemiluminescence); assay type: cell-based, equine
Experimental: Equine neutrophils were isolated from whole blood using EDTA disodium salt (1.6 mg/mL) as an anticoagulant. The blood was drawn from the jugular vein of healthy horses bred and fed under identical conditions without medical treatment. All the experiments were realized with the approval of the ethics committee of the Faculty of Veterinary Medicine of the University of Liege (agreement number 1474). Briefly, the neutrophils were isolated at room temperature (18–22 °C) by centrifugation (400× g; 45 min; 20 °C) on a discontinuous Percoll density gradient according to the method previously described. The cells were gently collected and washed with two volumes of physiological saline solution. After the supernatant removal, the cell pellets were re-suspended in 2 mL PBS and counted for further use.
The ROS produced by PMA-activated neutrophils were measured by L012-enhanced chemiluminescence (CL) under an adaptation of the method previously described by Benbarek et al. and Derochette et al.. Neutrophil suspensions were distributed in the wells (neutrophils/well, 143 μL PBS) of a 96-well microtiter plate (White Combiplate 8, Fisher Scientific) and incubated for 10 min at 37 °C with 2 μL of EA or analogue to reach final concentrations of 10^−8 M, 10^−7 M, 10^−6 M, and 10^−5 M. After incubation, 25 μL CaCl2 (10 mM) and 20 μL L-012 (10^−4 M) were added into the wells (final volume of 200 μL). […] A control was performed with neutrophils activated with PMA (positive Ctrl) in the presence of PBS instead of ellagic acid analogue. Another control was performed with PMA-activated neutrophils in the presence of the vehicle solution of ellagic acid or analogue (1% DMSO) (DMSO, final concentration) and was taken as 100% CL response. The negative control was performed with unstimulated neutrophils (NA) with the CL probe alone. The inhibition percentage was calculated using a similar formula (Equation (1)) as described above.

[2] = molecular target: T1, human myeloperoxidase (MPO) (Homo sapiens, UniProt P05164); assay: MPO peroxidase activity, classical assay (Amplex Red); assay type: biochemical
T1 construct: purchased Calbiochem Millipore
T1 sequence (P05164 49-745): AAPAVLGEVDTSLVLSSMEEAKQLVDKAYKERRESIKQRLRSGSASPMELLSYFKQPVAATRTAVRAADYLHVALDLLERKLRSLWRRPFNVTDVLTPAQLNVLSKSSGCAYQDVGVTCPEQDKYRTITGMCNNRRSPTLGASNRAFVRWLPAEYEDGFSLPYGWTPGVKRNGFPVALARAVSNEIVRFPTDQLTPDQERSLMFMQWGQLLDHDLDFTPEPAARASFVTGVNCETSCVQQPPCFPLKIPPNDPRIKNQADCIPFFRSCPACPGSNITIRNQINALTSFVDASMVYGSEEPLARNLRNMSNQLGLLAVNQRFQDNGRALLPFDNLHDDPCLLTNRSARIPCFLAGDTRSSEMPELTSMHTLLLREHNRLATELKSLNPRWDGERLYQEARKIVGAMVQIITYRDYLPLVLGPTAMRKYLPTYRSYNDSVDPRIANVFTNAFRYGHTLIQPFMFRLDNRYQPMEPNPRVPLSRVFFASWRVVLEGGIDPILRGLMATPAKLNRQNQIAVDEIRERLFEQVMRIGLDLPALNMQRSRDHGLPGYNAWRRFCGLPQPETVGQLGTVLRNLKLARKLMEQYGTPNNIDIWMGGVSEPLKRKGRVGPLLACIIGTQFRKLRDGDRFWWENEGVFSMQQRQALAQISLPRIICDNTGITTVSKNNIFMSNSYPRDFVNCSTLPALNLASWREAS
Experimental: Measurement of the peroxidase activity of MPO was performed by a classical enzymatic assay and by SIEFED assay as described by Nyssen et al.. The MPO solution was prepared with purified human MPO in dilution buffer (PBS 20 mM at pH 7.4 with 5 g/L BSA and 0.1% Tween-20). The solutions of EA or analogue, at final concentrations ranging from 10^−8 M to 10^−5 M, were incubated for 10 min with human MPO at a final concentration of 5 mU/mL before further use. The revelation of MPO activity was performed by monitoring the enzyme-catalyzed oxidation of Amplex Red in the presence of H2O2 (10 μM) and nitrite (4.5 mM) in phosphate buffer at pH 7.4.
After incubation, mixtures containing 100 μL of EA/analogue or vehicle (DMSO) and MPO were loaded into wells of microtiter plates (transparent), and the peroxidase activity was measured by adding 10 μL sodium nitrite solution (4.5 mM, final concentration) and 100 μL of the reactional solution containing 10 µM H2O2 and 40 µM Amplex® Red (AR) in phosphate buffer (50 mM) at pH 7.4. The oxidation of AR into the fluorescent resorufin adduct (λexcitation = 544 nm; λemission = 590 nm) was monitored for 30 min at 37 °C with a fluorescent plate reader (Fluoroskan Ascent, Fisher Scientific, Hampton, NH, USA). To eliminate the possibility of the artifact reactions that might arise from MPO activity or its natural substrate (H2O2), the direct reaction of ellagic acid or an analogue with H2O2 was performed in phosphate buffer (PBS) without the addition of human MPO.

[3] = ABTS radical cation assay
Experimental: The ABTS assay was based on the method described by Re et al.. For the generation of ABTS^•+ radicals, sodium persulfate (2.45 mM) aqueous solution was mixed with ABTS (7 mM) and incubated overnight in the dark to obtain a dark-colored solution. Stock solution of ABTS^•+ was then diluted by adding pure methanol (100%) to obtain an absorbance of 0.70 (±0.02) at 734 nm at 30 °C. To obtain more repetition, the ABTS assay was performed using a microplate reader (ThermoLabsystem, Finland). An aliquot of 2 µL of the tested compound (EA or analogue) was added to 198 µL of ABTS^•+, and the decrease in absorbance was monitored at 740 nm after 30 min [32]. During this reaction, the blue-green ABTS radical cation is converted back into its colorless neutral form in the presence of the potential antioxidant molecule. A control consisted of 2 µL of DMSO in 198 µL of ABTS^•+ solution. The reducing capacity was determined according to the formula:% inhibition = (Acontrol − ASample) × 100/AControl(1)

CN(C)C(=O)Oc1cc2c(=O)oc3c(OC(=O)N(C)C)c(OC(=O)N(C)C)cc4c(=O)oc(c1OC(=O)N(C)C)c2c34 [compound 6, Sevellagic acid]
Inhibition of neutrophil ROS production (in words) [1]: less active than all the other tested compounds
Inhibition of neutrophil ROS production ([1]; highest concentration): 58%
MPO inhibition, classical assay (in words) [2]: lack of effect
ABTS activity (in words) [3]: no significant activity

CCOC1Oc2cc(C(=O)OC)cc(O)c2O1 (stereo not drawn) [compound 11, methyl 2-ethoxy-7-hydroxybenzo[d][1,3]dioxole-5-carboxylate]
Inhibition of neutrophil ROS production (in words) [1]: good inhibitory effect
IC50 [3]: 6.56 ± 0.37 µM
